Results published in patent US11147272B2, “Pyridone compounds and agricultural and horticultural fungicides comprising the same as active ingredients” (MITSUI CHEMICALS AGRO, INC., priority 2017, dated 2021).
Where two headings read alike, the source gives them in different places.

Key:
[1] = test system: Blumeria graminis f. sp. hordei; assay: Test Example D: Powdery mildew on barley; conditions: for pest or weed control at 250 µg/mL: Blumeria graminis, in Hordeum vulgare, topical; for Test D control value class: class of control value
Botrytis cinerea = assay: Test Example B: Gray mold on tomato; conditions: for pest or weed control at 250 µg/mL: Botrytis cinerea, in Solanum lycopersicum, topical; for Test B control value class: class of control value
Plasmopara viticola = assay: Test Example G: Downy mildew on vine; conditions: for pest or weed control at 250 ppm: Plasmopara viticola, topical; for Test G control value: 7 to 10 days after inoculation; for Test G control value class: Downy mildew on vine (Neomuscat), 2.5 ml/pot, assessed 7 to 10 days after inoculation
Alternaia brassicicola = assay: Test Example C: Alternaria sooty spot on cabbage; format: in vivo; conditions: for pest or weed control at 250 µg/mL: Brassica oleracea, topical
Text: Seeds of a test plant (cabbage variety: Shikidori) were planted and cultivated until the cotyledons extended.
<Control Value> Control value=100{1−(n/3)}

Puccinia recondita = assay: Test Example E: Brown rust on wheat; format: in vivo; conditions: for pest or weed control at 250 µg/mL: Puccinia recondita, topical
Phytophthora infestans = assay: whole plant or invertebrate; format: in vivo; conditions: for pest or weed control at 250 µg/mL: Phytophthora infestans, in Solanum lycopersicum, topical; for Test F control value class: class of control value
Magnaporthe grisea = assay: whole plant or invertebrate; format: in vivo; conditions: for pest or weed control at 250 µg/mL: Pyricularia oryzae, in Oryza sativa; for Test A control value class: class of control value
[2] = test system: Colletotrichum orbiculare; assay: Test Example H: Anthracnose on cucumber; conditions: for pest or weed control at 250 ppm: Colletotrichum orbiculare, in Cucumis sativus, topical; for Test H control value: 6 to 10 days after inoculation; for Test H control value class: Anthracnose on cucumber (Sagami Hanjiro), 2.5 ml/pot, assessed 6 to 10 days after inoculation
[3] = Powdery mildew on barley, control value class
[4] = Gray mold on tomato, control value class
[5] = Downy mildew on vine, 250 ppm spray
[6] = Alternaria sooty spot on cabbage, control value class
[7] = Brown rust on wheat, control value class
[8] = Late blight on tomato, control value class
[9] = Blast on rice, control value class
[10] = Anthracnose on cucumber, 250 ppm spray
[11] = Alternaria sooty spot on cabbage, class of control value
[12] = Brown rust on wheat, class of control value
[13] = read-out: Test D control value class
[14] = read-out: Test B control value class
[15] = read-out: Test G control value class
[16] = Alternaria sooty spot on cabbage, class of control value, read-out: Test C control value class
[17] = Brown rust on wheat, class of control value, read-out: Test E control value class
[18] = read-out: Test F control value class
[19] = read-out: Test A control value class
[20] = read-out: Test H control value class
[21] = 250 ppm drug solution sprayed on test plant

CCn1c(-c2ccc(F)cc2Cl)c(C=C(C)C)cc(Cl)c1=O [Compound No. 300, 3-chloro-6-(2-chloro-4-fluorophenyl)-1-ethyl-5-(2-methyl-1-propenyl)pyridin-2(1H)-one]
pest or weed control at 250 µg/mL ([1]; read-out: Test D control value): > 50%
pest or weed control at 250 µg/mL (Botrytis cinerea; read-out: Test B control value): > 50%
pest or weed control at 250 ppm (Plasmopara viticola; 168 h, read-out: Test G control value): < 50%
pest or weed control at 250 µg/mL (Alternaia brassicicola; Alternaria sooty spot on cabbage, control value class, read-out: Test C control value): > 50%
pest or weed control at 250 µg/mL (Puccinia recondita; Brown rust on wheat, control value class, read-out: Test E control value): > 50%
pest or weed control at 250 µg/mL (Phytophthora infestans; read-out: Test F control value): < 50%
pest or weed control at 250 µg/mL (Magnaporthe grisea; read-out: Test A control value): > 50%
pest or weed control at 250 ppm ([2]; 144 h, read-out: Test H control value): > 50%

CCOC(C)(c1cc(Cl)c(=O)n(CC)c1-c1ccc(C#N)cc1)C(C)C (stereo not drawn) [compound 251]
Test D control value [1, 3]: L (50% or less control value)
Test B control value (Botrytis cinerea; [4]): L (50% or less control value)
Test G control value (Plasmopara viticola; [5]): L (50% or less control value)
Test C control value (Alternaia brassicicola; [6]): H (more than 50% control value)
Test E control value (Puccinia recondita; [7]): L (50% or less control value)
Test F control value (Phytophthora infestans; [8]): L (50% or less control value)
Test A control value (Magnaporthe grisea; [9]): L (50% or less control value)
Test H control value [2, 10]: L (50% or less control value)

CCC(O)c1cc(Cl)c(=O)n(CC)c1-c1c(F)cc(F)cc1F (stereo not drawn) [compound 46]
Test D control value class ([1]; Powdery mildew on barley): H (more than 50% control value)
Test B control value class (Botrytis cinerea; Gray mold on tomato): H (more than 50% control value)
Test G control value class (Plasmopara viticola; 250 ppm spray): L (50% or less control value)
Test C control value class (Alternaia brassicicola; [11]): H (more than 50% control value)
Test E control value class (Puccinia recondita; [12]): H (more than 50% control value)
Test F control value class (Phytophthora infestans; Late blight on tomato): L (50% or less control value)
Test A control value class (Magnaporthe grisea; Blast on rice): H (more than 50% control value)
Test H control value class ([2]; 250 ppm spray): H (more than 50% control value)

CCn1c(-c2c(F)cccc2F)c(C(C)(O)C(C)C)cc(Cl)c1=O (stereo not drawn) [Compound No. 183, 3-chloro-6-(2,6-difluorophenyl)-1-ethyl-5-(2-hydroxy-3-methylbutan-2-yl)pyridin-2(1H)-one]
pest or weed control at 250 µg/mL [1, 13]: > 50%
pest or weed control at 250 µg/mL (Botrytis cinerea; [14]): > 50%
pest or weed control at 250 ppm (Plasmopara viticola; [15]): > 50%
pest or weed control at 250 µg/mL (Alternaia brassicicola; [16]): > 50%
pest or weed control at 250 µg/mL (Puccinia recondita; [17]): > 50%
pest or weed control at 250 µg/mL (Phytophthora infestans; [18]): > 50%
pest or weed control at 250 µg/mL (Magnaporthe grisea; [19]): > 50%
pest or weed control at 250 ppm [2, 20]: > 50%

CCn1c(-c2ccc(F)cc2Cl)c(C2CCCC2)cc(Cl)c1=O [compound 220]
Test D control value [1, 3]: H (more than 50% control value)
Test B control value (Botrytis cinerea; [4]): H (more than 50% control value)
Test G control value (Plasmopara viticola; [5]): H (more than 50% control value)
Test C control value (Alternaia brassicicola; [6]): H (more than 50% control value)
Test E control value (Puccinia recondita; [7]): H (more than 50% control value)
Test F control value (Phytophthora infestans; [8]): L (50% or less control value)
Test A control value (Magnaporthe grisea; [9]): H (more than 50% control value)
Test H control value [2, 10]: H (more than 50% control value)

COc1cc(F)c(-c2c(C(C)(C)C)cc(Cl)c(=O)n2C)c(F)c1 [compound 79]
Test D control value class ([1]; Powdery mildew on barley): H (more than 50% control value)
Test B control value class (Botrytis cinerea; Gray mold on tomato): H (more than 50% control value)
Test G control value class (Plasmopara viticola; 250 ppm spray): L (50% or less control value)
Test C control value class (Alternaia brassicicola; [11]): H (more than 50% control value)
Test E control value class (Puccinia recondita; [12]): H (more than 50% control value)
Test F control value class (Phytophthora infestans; Late blight on tomato): L (50% or less control value)
Test A control value class (Magnaporthe grisea; Blast on rice): H (more than 50% control value)
Test H control value class ([2]; 250 ppm spray): H (more than 50% control value)

C#CC(F)c1cc(Cl)c(=O)n(CC)c1-c1c(F)cc(F)cc1F (stereo not drawn) [compound 286]
Test D control value [1, 3]: L (50% or less control value)
Test B control value (Botrytis cinerea; [4]): H (more than 50% control value)
Test G control value (Plasmopara viticola; [5]): L (50% or less control value)
Test C control value (Alternaia brassicicola; [6]): H (more than 50% control value)
Test E control value (Puccinia recondita; [7]): H (more than 50% control value)
Test F control value (Phytophthora infestans; [8]): L (50% or less control value)
Test A control value (Magnaporthe grisea; [9]): L (50% or less control value)
Test H control value [2, 10]: H (more than 50% control value)

CCCCCCCc1cc(Cl)c(=O)n(CC)c1-c1ccc(F)cc1Cl [compound 268]
Test D control value [1, 3]: H (more than 50% control value)
Test B control value (Botrytis cinerea; [4]): L (50% or less control value)
Test G control value (Plasmopara viticola; [5]): L (50% or less control value)
Test C control value (Alternaia brassicicola; [6]): L (50% or less control value)
Test E control value (Puccinia recondita; [7]): L (50% or less control value)
Test F control value (Phytophthora infestans; [8]): L (50% or less control value)
Test A control value (Magnaporthe grisea; [9]): L (50% or less control value)
Test H control value [2, 10]: L (50% or less control value)

CCn1c(-c2ccc(F)cc2Cl)c(CC(C)C)ccc1=O [Compound No. 98, 6-(2-chloro-4-fluorophenyl)-1-ethyl-5-isobutylpyridin-2(1H)-one]
pest or weed control at 250 µg/mL [1, 13]: > 50%
pest or weed control at 250 µg/mL (Botrytis cinerea; [14]): > 50%
pest or weed control at 250 ppm (Plasmopara viticola; [15]): < 50%
pest or weed control at 250 µg/mL (Alternaia brassicicola; [16]): > 50%
pest or weed control at 250 µg/mL (Puccinia recondita; [17]): > 50%
pest or weed control at 250 µg/mL (Phytophthora infestans; [18]): < 50%
pest or weed control at 250 µg/mL (Magnaporthe grisea; [19]): > 50%
pest or weed control at 250 ppm [2, 20]: < 50%

CCn1c(-c2c(F)cc(F)cc2F)c(CC(C)C)ccc1=O [compound 37]
Test D control value class ([1]; Powdery mildew on barley): L (50% or less control value)
Test B control value class (Botrytis cinerea; Gray mold on tomato): L (50% or less control value)
Test G control value class (Plasmopara viticola; 250 ppm spray): L (50% or less control value)
Test C control value class (Alternaia brassicicola; [11]): L (50% or less control value)
Test E control value class (Puccinia recondita; [12]): L (50% or less control value)
Test F control value class (Phytophthora infestans; Late blight on tomato): L (50% or less control value)
Test A control value class (Magnaporthe grisea; Blast on rice): H (more than 50% control value)
Test H control value class ([2]; 250 ppm spray): L (50% or less control value)

CCC(C)(OC)c1cc(Cl)c(=O)n(C)c1-c1c(F)cc(OC)cc1F (stereo not drawn) [compound 511]
Test D control value [1, 21]: L (50% or less control value)
Test B control value (Botrytis cinerea; [21]): H (more than 50% control value)
Test G control value (Plasmopara viticola; 250 ppm drug solution sprayed (2.5 ml/pot), grape Neomuscat): H (more than 50% control value)
Test C control value (Alternaia brassicicola; [21]): H (more than 50% control value)
Test E control value (Puccinia recondita; [21]): H (more than 50% control value)
Test F control value (Phytophthora infestans; [21]): L (50% or less control value)
Test A control value (Magnaporthe grisea; [21]): H (more than 50% control value)
Test H control value ([2]; 250 ppm drug solution sprayed (2.5 ml/pot), cucumber Sagami Hanjiro): H (more than 50% control value)

CCn1c(-c2c(F)cc(F)cc2F)c(C(=O)CC(C)C)cc(Cl)c1=O [compound 160]
Test D control value class ([1]; Powdery mildew on barley): H (more than 50% control value)
Test B control value class (Botrytis cinerea; Gray mold on tomato): H (more than 50% control value)
Test G control value class (Plasmopara viticola; 250 ppm spray): H (more than 50% control value)
Test C control value class (Alternaia brassicicola; [11]): H (more than 50% control value)
Test E control value class (Puccinia recondita; [12]): H (more than 50% control value)
Test F control value class (Phytophthora infestans; Late blight on tomato): L (50% or less control value)
Test A control value class (Magnaporthe grisea; Blast on rice): L (50% or less control value)
Test H control value class ([2]; 250 ppm spray): H (more than 50% control value)

CCOC(C)(c1cc(Cl)c(=O)n(CC)c1-c1c(F)cc(F)cc1F)C(C)C (stereo not drawn) [compound 228]
Test D control value [1, 3]: H (more than 50% control value)
Test B control value (Botrytis cinerea; [4]): H (more than 50% control value)
Test G control value (Plasmopara viticola; [5]): H (more than 50% control value)
Test C control value (Alternaia brassicicola; [6]): H (more than 50% control value)
Test E control value (Puccinia recondita; [7]): H (more than 50% control value)
Test F control value (Phytophthora infestans; [8]): L (50% or less control value)
Test A control value (Magnaporthe grisea; [9]): H (more than 50% control value)
Test H control value [2, 10]: H (more than 50% control value)

CCn1c(-c2ccc(OC)cc2)c(C(=O)C(C)C)cc(Cl)c1=O [compound 222]
Test D control value [1, 3]: H (more than 50% control value)
Test B control value (Botrytis cinerea; [4]): H (more than 50% control value)
Test G control value (Plasmopara viticola; [5]): L (50% or less control value)
Test C control value (Alternaia brassicicola; [6]): H (more than 50% control value)
Test E control value (Puccinia recondita; [7]): H (more than 50% control value)
Test F control value (Phytophthora infestans; [8]): L (50% or less control value)
Test A control value (Magnaporthe grisea; [9]): L (50% or less control value)
Test H control value [2, 10]: L (50% or less control value)

CCn1c(-c2c(F)cccc2OC)c(CC(C)C)cc(Cl)c1=O [compound 97]
Test D control value class ([1]; Powdery mildew on barley): H (more than 50% control value)
Test B control value class (Botrytis cinerea; Gray mold on tomato): H (more than 50% control value)
Test G control value class (Plasmopara viticola; 250 ppm spray): L (50% or less control value)
Test C control value class (Alternaia brassicicola; [11]): H (more than 50% control value)
Test E control value class (Puccinia recondita; [12]): H (more than 50% control value)
Test F control value class (Phytophthora infestans; Late blight on tomato): L (50% or less control value)
Test A control value class (Magnaporthe grisea; Blast on rice): H (more than 50% control value)
Test H control value class ([2]; 250 ppm spray): H (more than 50% control value)
